Earlier results, collected in patent US6767895B2 (priority 2000, dated 2004).

Settings: in vivo; cited from earlier work

## contulakin-G
  potency in inhibiting pain relative to neurotensin: significantly more potent than neurotensin
